The nature of experiment [1]: Inhibition of thioredoxin-conjugated PolyQ-62 protein aggregation expressed in Escherichia coli DH5alpha at 20 uM relative to control.
Experiment [2] is described as follows: Inhibition of thioredoxin-conjugated PolyQ-62 protein aggregation expressed in Escherichia coli DH5alpha.

pIC50: −log10 of the molar value.

With Ac-SNWKWWPG-NH2, the inhibition (usually the relative decrease from the control value, in per cent) in experiment [1] is 5.9%. `CC[C@H](C)[C@H](NC(=O)CNC(=O)[C@H]1CCCN1C(=O)[C@H](Cc1c[nH]c2ccccc12)NC(=O)[C@H](Cc1c[nH]c2ccccc12)NC(=O)[C@H](CCCCN)NC(=O)[C@H](Cc1c[nH]c2ccccc12)NC(=O)[C@H](CC(N)=O)NC(=O)[C@H](CO)NC(C)=O)C(=O)N[C@@H](Cc1ccccc1)C(=O)N[C@@H](CC(=O)O)C(N)=O`: the inhibition in experiment [1] was determined as 25.7%. In the case of Ac-WKWWPGIF-NH2, in experiment [1], the inhibition was 85.6%. Moreover, the pIC50 – broadly, the IC50 on a negative log10 scale, so that one unit is a factor of ten – in experiment [2] is 5.44. As for `CC[C@H](C)[C@H](NC(=O)CNC(=O)[C@@H]1CCCN1C(=O)[C@@H](Cc1c[nH]c2ccccc12)NC(=O)[C@H](Cc1c[nH]c2ccccc12)NC(=O)[C@H](CCCCN)NC(=O)[C@H](Cc1c[nH]c2ccccc12)NC(=O)[C@H](CC(N)=O)NC(=O)[C@H](CO)NC(C)=O)C(=O)N[C@@H](Cc1ccccc1)C(=O)N[C@@H](CC(=O)O)C(N)=O`, the inhibition in experiment [1] was 8.4%. In the case of `CC[C@H](C)[C@H](NC(=O)CNC(=O)[C@@H]1CCCN1C(=O)[C@H](Cc1c[nH]c2ccccc12)NC(=O)[C@H](Cc1c[nH]c2ccccc12)NC(=O)[C@H](CCCCN)NC(=O)[C@H](Cc1c[nH]c2ccccc12)NC(=O)[C@@H](CC(N)=O)NC(=O)[C@H](CO)NC(C)=O)C(=O)N[C@@H](Cc1ccccc1)C(=O)N[C@@H](CC(=O)O)C(N)=O`, the inhibition in experiment [1] was determined as 80.7%. This compound gave a pIC50 in experiment [2] of 5.35. As for Ac-SNWKWWPGIF-NH2, the inhibition in experiment [1] worked out at 57.4%. In experiment [2], the pIC50 was 4.84. As to `CC[C@H](C)[C@H](NC(=O)CNC(=O)[C@@H]1CCCN1C(=O)[C@H](Cc1c[nH]c2ccccc12)NC(=O)[C@H](Cc1c[nH]c2ccccc12)NC(=O)[C@H](CCCCN)NC(=O)[C@H](Cc1c[nH]c2ccccc12)NC(=O)[C@H](CC(N)=O)NC(=O)[C@H](CO)NC(C)=O)C(=O)N[C@H](Cc1ccccc1)C(=O)N[C@@H](CC(=O)O)C(N)=O`, the inhibition in experiment [1] came to 65.3%. The pIC50 in experiment [2] is below 4.70. For the compound Ac-SAWKWWPGIFD-NH2, in experiment [1], the inhibition is 82.2%. Moreover, the pIC50 in experiment [2] is 5.37. With `CC[C@H](C)[C@@H](NC(=O)CNC(=O)[C@@H]1CCCN1C(=O)[C@H](Cc1c[nH]c2ccccc12)NC(=O)[C@H](Cc1c[nH]c2ccccc12)NC(=O)[C@H](CCCCN)NC(=O)[C@H](Cc1c[nH]c2ccccc12)NC(=O)[C@H](CC(N)=O)NC(=O)[C@H](CO)NC(C)=O)C(=O)N[C@@H](Cc1ccccc1)C(=O)N[C@@H](CC(=O)O)C(N)=O`, in experiment [1], the inhibition was found to be 33.2%. The same measure, in the same setting: the figure for Ac-SNWKWWPGIAD-NH2 is 11.4%. In the case of Ac-SNWKWWPGIFA-NH2, the inhibition in experiment [1] was 67.8%. In experiment [2], this compound showed a negative-log IC50 (pIC50) of 4.81. As for Ac-NWKWWPGIFD-NH2, in experiment [1], the inhibition amounted to 78.2%. The compound also gave a pIC50 in experiment [2] of 5.30.

Regarding `CC[C@H](C)[C@H](NC(=O)CNC(=O)[C@@H]1CCCN1C(=O)[C@H](Cc1c[nH]c2ccccc12)NC(=O)[C@H](Cc1c[nH]c2ccccc12)NC(=O)[C@H](CCCCN)NC(=O)[C@H](Cc1c[nH]c2ccccc12)NC(=O)[C@H](CC(N)=O)NC(=O)[C@@H](CO)NC(C)=O)C(=O)N[C@@H](Cc1ccccc1)C(=O)N[C@@H](CC(=O)O)C(N)=O`, the inhibition in experiment [1] turned out to be 83.2%. Also, the pIC50 in experiment [2] was 5.36.

For the compound Ac-KWWPGIFD-NH2, the inhibition in experiment [1] was 5.4%. With Ac-WKWWPGIFD-NH2, the inhibition in experiment [1] is 81.2%. The negative-log IC50 (pIC50) in experiment [2] was 5.54. With Ac-SNWKWWPGI-NH2, the inhibition in experiment [1] turned out to be 7.4%. Regarding Ac-SNWAWWPGIFD-NH2, the inhibition in experiment [1] came out at 78.2%. Besides, the pIC50 in experiment [2] was 5.07. Consider Ac-WWPGIFD-NH2, for which the inhibition in experiment [1] came out at 5%. Still for that read-out and setting: the figure for Ac-SNWKWWPGAFD-NH2 is 9.9%; for Ac-SNWKAWPGIFD-NH2 it is -5.4%. Regarding Ac-ANWKWWPGIFD-NH2, the inhibition in experiment [1] came to 78.2%. The negative logarithm of the IC50 (pIC50) in experiment [2] is 5.20. As for `CC[C@H](C)[C@H](NC(=O)CNC(=O)[C@@H]1CCCN1C(=O)[C@H](Cc1c[nH]c2ccccc12)NC(=O)[C@H](Cc1c[nH]c2ccccc12)NC(=O)[C@H](CCCCN)NC(=O)[C@@H](Cc1c[nH]c2ccccc12)NC(=O)[C@H](CC(N)=O)NC(=O)[C@H](CO)NC(C)=O)C(=O)N[C@@H](Cc1ccccc1)C(=O)N[C@@H](CC(=O)O)C(N)=O`, the inhibition in experiment [1] turned out to be 41.1%. Still for that read-out and setting: the figure for Ac-SNWKWWP-NH2 is 11.4%; for `CC[C@H](C)[C@H](NC(=O)CNC(=O)[C@@H]1CCCN1C(=O)[C@H](Cc1c[nH]c2ccccc12)NC(=O)[C@@H](Cc1c[nH]c2ccccc12)NC(=O)[C@H](CCCCN)NC(=O)[C@H](Cc1c[nH]c2ccccc12)NC(=O)[C@H](CC(N)=O)NC(=O)[C@H](CO)NC(C)=O)C(=O)N[C@@H](Cc1ccccc1)C(=O)N[C@@H](CC(=O)O)C(N)=O` it is 6.4%. As to `CC[C@H](C)[C@H](NC(=O)CNC(=O)[C@@H]1CCCN1C(=O)[C@H](Cc1c[nH]c2ccccc12)NC(=O)[C@H](Cc1c[nH]c2ccccc12)NC(=O)[C@H](CCCCN)NC(=O)[C@H](Cc1c[nH]c2ccccc12)NC(=O)[C@H](CC(N)=O)NC(=O)[C@H](CO)NC(C)=O)C(=O)N[C@@H](Cc1ccccc1)C(=O)N[C@H](CC(=O)O)C(N)=O`, in experiment [1], the inhibition worked out at 77.2%. In experiment [2], this compound showed a pIC50 of 5.30. For the compound `CC[C@H](C)[C@H](NC(=O)[C@@H](C)NC(=O)[C@@H]1CCCN1C(=O)[C@H](Cc1c[nH]c2ccccc12)NC(=O)[C@H](Cc1c[nH]c2ccccc12)NC(=O)[C@H](CCCCN)NC(=O)[C@H](Cc1c[nH]c2ccccc12)NC(=O)[C@H](CC(N)=O)NC(=O)[C@H](CO)NC(C)=O)C(=O)N[C@@H](Cc1ccccc1)C(=O)N[C@@H](CC(=O)O)C(N)=O`, the inhibition in experiment [1] came to 16.3%.

Consider `CC[C@H](C)[C@H](NC(=O)CNC(=O)[C@@H]1CCCN1C(=O)[C@H](Cc1c[nH]c2ccccc12)NC(=O)[C@H](Cc1c[nH]c2ccccc12)NC(=O)[C@H](CCCCN)NC(=O)[C@H](Cc1c[nH]c2ccccc12)NC(=O)[C@H](CC(N)=O)NC(=O)[C@H](CO)NC(C)=O)C(=O)N[C@@H](Cc1ccccc1)C(=O)N[C@@H](CC(=O)O)C(N)=O`, for which the inhibition in experiment [1] was 76.7%. In experiment [2], this compound gave a pIC50 of 5.30. On the same counts, the results for `CC[C@H](C)[C@H](NC(=O)[C@H](C)NC(=O)[C@@H]1CCCN1C(=O)[C@H](Cc1c[nH]c2ccccc12)NC(=O)[C@H](Cc1c[nH]c2ccccc12)NC(=O)[C@H](CCCCN)NC(=O)[C@H](Cc1c[nH]c2ccccc12)NC(=O)[C@H](CC(N)=O)NC(=O)[C@H](CO)NC(C)=O)C(=O)N[C@@H](Cc1ccccc1)C(=O)N[C@@H](CC(=O)O)C(N)=O` are 64.9% and 4.94.

For Ac-SNAKWWPGIFD-NH2, in experiment [1], the inhibition was -4%. The same measure, in the same setting: the figure for `CC[C@H](C)[C@H](NC(=O)CNC(=O)[C@@H]1CCCN1C(=O)[C@H](Cc1c[nH]c2ccccc12)NC(=O)[C@H](Cc1c[nH]c2ccccc12)NC(=O)[C@@H](CCCCN)NC(=O)[C@H](Cc1c[nH]c2ccccc12)NC(=O)[C@H](CC(N)=O)NC(=O)[C@H](CO)NC(C)=O)C(=O)N[C@@H](Cc1ccccc1)C(=O)N[C@@H](CC(=O)O)C(N)=O` is 9.9%.

Turning to Ac-SNWKWWAGIFD-NH2, the inhibition in experiment [1] was 58.9%. The compound further showed a negative logarithm of the IC50 (pIC50) in experiment [2] of 5.00.
